Data published in patent publication US9452036B2, “Dental ultrasonic drug delivery system and dental ultrasonic drug delivery method” (priority 2009, dated 2016).

How the values were obtained:
[1] = system: kanamycin-resistant enterococcus faecalis (lactococcus); assay: In vivo tubule sterilization test using ultrasound and nanobubbles (canine tooth root canal)
Description: After a canine tooth had been subjected to access cavity preparation and root canal enlargement (to #60) in vivo by common methods, a smear layer was removed with a Smear Clean (Nippon Shika Yakuhin Co., Ltd.). Then, the inside of the root canal was sufficiently dried with a cotton plug. Thereafter, 10 μl of a bacterial culture (a brain heart infusion (BHI) broth, Nissui Pharmaceuticals Co., Ltd., containing kanamycin) in which kanamycin-resistant enterococcus faecalis (lactococcus) subjected to gene transfer of pEGFP-C1 (clontech) was cultured was injected into each root canal. Subsequently, the root canal was temporarily sealed with zinc phosphate cement. Then, after 7 days, the root canal was irrigated with 3 ml of a saline solution. Thereafter, 20 μl of a drug solution containing 10% nanobubbles and 50 μg/ml of ampicillin was applied into the root canal. Then, with an ultrasound generator (SonoPore KTAC-4000), an ultrasonic device with a diameter of 1 mm of a detachable irradiation tube propagation type probe (i.e., an applicator type in which a Langevin transducer is provided inside a probe body) was inserted into the root canal, and ultrasound was delivered at a voltage of 30 V, a frequency of 1.186 MHz, a burst rate of 18.8 Hz, and a pulse-duty ratio of 50% for an application time of 120 seconds. […]

[2] = In-vitro test for drug permeation in root canal using ultrasound and nanobubbles (extracted canine tooth, fluorescence); type: in vitro ADME
Source text: After an extracted canine tooth had been subjected to access cavity preparation and root canal enlargement (to #60) by common methods, a smear layer was removed with a Smear Clean (Nippon Shika Yakuhin Co., Ltd.), and the tooth was refrigerated in a saline solution until being used in an experiment. Then, the inside of the root canal was sufficiently dried with a cotton plug. Thereafter, to prevent a drug solution from leaking from the root canal, an apical area was filled with a Unifast III (GC Corporation). Subsequently, nanobubbles were diluted with a saline solution such that the concentration of the nanobubbles is 5% or 10% (where the bubble concentration will be expressed in terms of vol % hereinafter), thereby preparing a drug solution containing 4.5 mg/ml tetracycline (SIGMA088K0680). The 5% nanobubbles herein mean that the concentration of the nanobubbles is 6×10^8/ml. The 10% nanobubbles herein mean that the concentration of the nanobubbles is 1.2×10^9/ml. Since even a small amount of deposited tetracycline produces fluorescence when irradiated with ultraviolet radiation, a deposition site can be easily detected with a fluorescence microscope. As a control, microbubbles (Optison (Molecular Biosystems Inc., San Diego)) were used, and a 5% or 10% drug solution was used. The 5% microbubbles herein mean that the concentration of the microbubbles is 6×10^8/ml. The 10% microbubbles herein mean that the concentration of the microbubbles is 1.2×10^9/ml. Then, 20 μl of the drug solution was applied into the root canal, and using an ultrasound generator (SonoPore KTAC-4000), an ultrasonic device with a diameter of 1 mm of a detachable irradiation tube propagation type probe (i.e., an applicator type in which a Langevin transducer is provided inside a probe body) was inserted into the root canal, and the device was operated. Operating conditions were that the voltage was 30 V (0.13-0.20 W indicated by a meter) or 31 V, the frequency was 1.186 MHz, the burst rate was 18.8 Hz, the pulse-duty ratio was 50%, and the application time was 120 seconds. After a lapse of the application time, the dilution solution was sufficiently removed with a cotton plug, and then a section with a thickness of 150 μm was prepared with a saw microtome (Leica SP1600), and a microscopic examination was performed with a stereomicroscope under ultraviolet irradiation. The degree of delivery of the drug into dentin tubules was observed based on fluorescence reaction.

[3] = system: E. Coli; assay: In vitro tubule sterilization test using sodium hypochlorite and nanobubbles (extracted bovine teeth); type: cell-based; settings: for OD600 value: paper point cultured 12 hours
Description: Using ten extracted bovine teeth (anterior teeth), the apical area of each of the teeth was filled with photopolymerization type ionomer cement. Then, the inside of the root cavity was treated with 6% sodium hypochlorite, irrigated, and sterilized with an autoclave. Thereafter, the inside of the root canal was sufficiently irrigated with a sterilized saline solution, dried with a paper point, filled with an E. Coli saturated solution, and then cultured in a humidity bath at 37° C. for a night. Then, the E. Coli solution in the root canal was sucked with a paper point, and the root canal was filled with an irrigation solution and 1% or 0.1% sodium hypochlorite. Thereafter, 5% nanobubbles were injected into the root canal, and ultrasound was applied thereto at a voltage of 30 V, a frequency of 1.186 MHz, a burst rate of 18.8 Hz, and a pulse-duty ratio of 50% for 120 seconds. Subsequently, the root canal was sufficiently irrigated with a saline solution, and the tooth was left for one minute with a paper point inserted into the root canal. Then, the paper point was cultured. After 12 hours, the amount of bacteria was measured with an absorbance OD600.

In the case of `CC1(C)S[C@@H]2[C@H](NC(=O)[C@H](N)c3ccccc3)C(=O)N2[C@H]1C(=O)O` [ampicillin], the “bacteria in the lateral wall of the root canal” value ([1]; 50 μg/ml ampicillin delivered using 10% nanobubbles and ultrasound 30 V, 120 seconds, fourth day (FIG. 25A)) was “no bacteria were observed” and the “bacteria in the lateral wall of the root canal” value ([1]; only ampicillin, fourth day (FIG. 25B)) was “bacteria were not completely killed”.

In the case of `CN(C)[C@@H]1C(O)=C(C(N)=O)C(=O)[C@@]2(O)C(O)=C3C(=O)c4c(O)cccc4[C@@](C)(O)[C@H]3C[C@@H]12` [tetracycline], the “degree of delivery of the drug to dentin tubules” value ([2]; 5% microbubbles, no ultrasound (FIG. 21E)) was “insufficient”, the “degree of delivery of the drug to dentin tubules” value ([2]; 5% microbubbles, ultrasound 30 V (FIG. 21D)) was “insufficient” and the “degree of delivery of the drug to dentin tubules” value ([2]; 5% nanobubbles, no ultrasound (FIG. 21C)) was “insufficient”. For the same compound, the “degree of delivery of the drug to dentin tubules” value ([2]; 5% nanobubbles, ultrasound 30 V, 120 seconds, 4.5 mg/ml tetracycline (FIG. 21A)) was “high”, the “degree of delivery of the drug to dentin tubules” value ([2]; 5% nanobubbles, ultrasound 31 V (FIG. 21B)) was “insufficient” and the “degree of delivery of the drug to dentin tubules” value ([2]; 10% microbubbles, no ultrasound (FIG. 22E)) was “insufficient”. The “degree of delivery of the drug to dentin tubules” value ([2]; 10% microbubbles, ultrasound 30 V (FIG. 22D)) was “insufficient”, the “degree of delivery of the drug to dentin tubules” value ([2]; 10% nanobubbles, no ultrasound (FIG. 22C)) was “insufficient” and the “degree of delivery of the drug to dentin tubules” value ([2]; 10% nanobubbles, ultrasound 30 V, 120 seconds, 4.5 mg/ml tetracycline (FIG. 22A)) was “high”. The “degree of delivery of the drug to dentin tubules” value ([2]; 10% nanobubbles, ultrasound 31 V (FIG. 22B)) was “insufficient”, the “drug permeation with nanobubbles compared with microbubbles” value ([2]; bubble concentrations of 5% and 10%) was “more significantly permeates” and the “degree of delivery of the drug to dentin tubules, 10% nanobubbles compared with 5% nanobubbles” value ([2]; ultrasound 30 V (FIGS. 21A and 22A)) was “higher”.

In the case of `OCl` [sodium hypochlorite], the “sterilization of the inside of the root canal” value ([3]; 0.1% sodium hypochlorite) was “sterilized only in the presence of 5% nanobubbles”, the “bactericidal effect in the root canal” value ([3]; 1% sodium hypochlorite, irrespective of the presence of 5% nanobubbles) was “a bactericidal effect was obtained” and the OD600 value ([3]; sodium hypochlorite 1.0, 5% nanobubbles +, ultrasound 30 V 120 seconds) was 0. The OD600 value ([3]; sodium hypochlorite 1.0, 5% nanobubbles −) was 0.
